Experimental data as given in ChEMBL document CHEMBL5058564, “EUbOPEN Chemogenomics Library 2 (Incucyte)” (2022).

Legend:
Assay type in all cases: toxicity, cell-based
HEK-293T = assay: Incucyte cell viability with HEK293T; conditions: human, 10 µM, compound concentration 10 uM
Fibroblast = assay: Incucyte cell viability with human fibroblast; conditions: 10 µM, compound concentration 10 uM
U2OS = assay: Incucyte cell viability with U2OS; conditions: human, 10 µM, compound concentration 10 uM
[1] = 18 h, replicate number 1, timepoint 18 hours
[2] = 24 h, replicate number 1, timepoint 24 hours
[3] = 0 h, replicate number 2, timepoint 0 hours
[4] = 6 h, replicate number 1, timepoint 6 hours
[5] = 6 h, replicate number 2, timepoint 6 hours
[6] = 12 h, replicate number 1, timepoint 12 hours
[7] = 12 h, replicate number 2, timepoint 12 hours
[8] = 18 h, replicate number 2, timepoint 18 hours
[9] = 24 h, replicate number 2, timepoint 24 hours
[10] = 0 h, replicate number 1, timepoint 0 hours
Note: unitless GR value; below 1 slowed growth and below 0 cell loss.

Row | Structure (SMILES) | Growth Rate (HEK-293T; [1]) | Growth Rate (HEK-293T; [2]) | Growth Rate (Fibroblast; [3]) | Growth Rate (Fibroblast; [4]) | Growth Rate (Fibroblast; [5]) | Growth Rate (Fibroblast; [6]) | Growth Rate (Fibroblast; [8]) | Growth Rate (Fibroblast; [2]) | Growth Rate (U2OS; [10]) | Growth Rate (U2OS; [7]) | Growth Rate (U2OS; [8]) | Growth Rate (HEK-293T; [8]) | Growth Rate (Fibroblast; [10]) | Growth Rate (U2OS; [4]) | Growth Rate (U2OS; [1]) | Growth Rate (U2OS; [9]) | Growth Rate (HEK-293T; [6]) | Growth Rate (Fibroblast; [1]) | Growth Rate (U2OS; [3]) | Growth Rate (HEK-293T; [10]) | further results
1 | Cc1cc(OCCCS(C)(=O)=O)cc(C)c1-c1cccc(COc2ccc3c(c2)OC[C@H]3CC(=O)O)c1 | 0.7 | 0.69 | 0.69 | -0.03 | 0.19 | 1 | 0.31 | 0.78 | 0.26 | 0.89 | 0.9 |  |  |  |  |  |  |  |  |  | Growth Rate (Fibroblast; [7]): 0.55; Growth Rate (Fibroblast; [9]): 0.67; Growth Rate (U2OS; [5]): 0.73
2 | CCc1nc2c(C)cc(C)nc2[nH]1 |  |  |  |  | 0.58 |  | 0.92 |  |  |  | 0.93 | 0.89 | 0.65 | 0.2 | 0.7 | 0.96 |  |  |  |  | Growth Rate (Fibroblast; [7]): 0.69; Growth Rate (U2OS; [6]): 0.62
3 | Cc1noc(-c2ccc(-c3ccc(CC(=O)O)cc3)cc2)c1NC(=O)O[C@H](C)c1ccccc1Cl | 0.67 | 0.81 | 0.54 |  |  |  |  |  |  | 0.92 | 0.93 |  | -0.69 |  |  | 0.95 | 0.85 |  |  |  | Growth Rate (U2OS; [5]): 0.82
4 | CN(C)[C@H]1CN(C2CCc3cccc(F)c32)C[C@@H]1c1ccc(N2CCN(S(C)(=O)=O)CC2)cc1 (some centres not stated) |  |  |  |  | 0.88 |  |  | 0.75 | -0.44 | 0.83 | 0.9 | 0.89 |  | 0.58 | 0.87 | 0.98 |  | 0.68 | -0.68 |  | Growth Rate (HEK-293T; [5]): 0.35; Growth Rate (HEK-293T; [7]): 0.71; Growth Rate (HEK-293T; [9]): 0.8; Growth Rate (U2OS; [5]): 0.61; Growth Rate (U2OS; [6]): 0.63; Growth Rate (U2OS; [2]): 0.97
5 | CC(F)(F)CN1CCOc2c(nn(-c3ccccc3Cl)c2-c2ccc(Cl)cc2)C1=O |  |  |  | -0.37 | 0.94 | 0.01 | 0.75 | -0.09 |  |  |  |  |  |  |  |  |  | -0.21 | -1 |  | Growth Rate (HEK-293T; [7]): 0.82; Growth Rate (Fibroblast; [7]): 0.22; Growth Rate (Fibroblast; [9]): 0.06
6 | N#Cc1cc2c(OCC(O)CN3CCN(C(c4ccccc4)c4ccccc4)CC3)cccc2[nH]1 (racemic) | 0.32 | 0.27 | 0.94 |  |  | 0.52 | 0.91 | 0.24 | -0.56 |  |  | 0.26 | -0.11 |  |  |  | 0.54 | -0.05 | -1 | 0.77 | Growth Rate (HEK-293T; [7]): 0.62; Growth Rate (HEK-293T; [9]): 0.29
7 | CCCn1c(=O)c2[nH]c(C3CCCC3)nc2n(CCC)c1=O [1,3-DIPROPYL-8-CYCLOPENTYLXANTHINE [DPCPX]] | 0.81 | 0.72 | 0.38 | -0.31 |  | 0.03 |  | -0.1 | -0.53 |  | 0.95 |  | 0.19 |  |  |  | 0.84 | -0.16 | -1 | 0.58 | Growth Rate (HEK-293T; [4]): 0.57; Growth Rate (HEK-293T; [5]): 0.79
8 | CCCCC/C=C\C/C=C\C/C=C\C/C=C\CCCC(=O)OC(CO)CO [2-ARACHIDONOYLGLYCEROL] | 0.64 | 0.67 |  |  |  |  |  | 0.93 |  | 0.9 |  | 0.69 |  |  |  | 0.99 | 0.72 |  | 0.65 |  | Growth Rate (HEK-293T; [4]): 0.94; Growth Rate (HEK-293T; [7]): 0.51; Growth Rate (HEK-293T; [9]): 0.75; Growth Rate (U2OS; [2]): 0.81
9 | CCNC(=O)c1cc2c(-c3cc(C(C)(C)O)ccc3Oc3c(C)cc(F)cc3C)cn(C)c(=O)c2[nH]1 [ABBV-744] | 0.82 | 0.69 |  | 0.41 | 0.71 | 0.68 |  | 0.75 |  |  |  |  | 0.23 |  |  |  |  | 0.87 |  | 0.5 | Growth Rate (HEK-293T; [3]): 0.16; Growth Rate (HEK-293T; [9]): 0.71; Growth Rate (Fibroblast; [9]): 0.87; Growth Rate (U2OS; [2]): -0.17
10 | Nc1ncnc2c1ncn2[C@@H]1O[C@H](CO)[C@@H](O)[C@H]1O [ADENOSINE] |  | 0.79 | 0.19 | -0.04 |  | 0.59 |  | 0.58 | 0.54 |  |  | 0.98 | 0.25 | 0.47 | 0.77 |  |  | 0.7 |  | -0.6 | Growth Rate (HEK-293T; [3]): -0.36; Growth Rate (U2OS; [6]): 0.84
11 | COc1c(Nc2ccc(S(C)(=O)=O)nc2C)ncnc1OC1CCN(C(=O)OC(C)C)CC1 [ADP-597] | 0.51 | 0.74 | 0.94 | 0.72 |  | 0.53 |  | 0.88 |  |  |  |  |  |  | 0.98 |  | 0.45 | 0.34 |  |  | Growth Rate (HEK-293T; [4]): 0.29; Growth Rate (Fibroblast; [7]): 0.7; Growth Rate (U2OS; [2]): 1
12 | COc1cc2nc(N(C)CCCNC(=O)C3CCCO3)nc(N)c2cc1OC.Cl (configuration not stated) [ALFUZOSIN HYDROCHLORIDE] | 0.99 | 0.99 | 0.06 |  | 0.11 |  | 0.61 | 0.72 | -0.55 | 0.97 | 0.93 |  | 0.72 | 0.24 | 0.72 |  |  |  |  | 0.21 | Growth Rate (HEK-293T; [3]): 0.19; Growth Rate (HEK-293T; [4]): 0.54; Growth Rate (HEK-293T; [9]): 0.96; Growth Rate (Fibroblast; [7]): 0.51; Growth Rate (Fibroblast; [9]): 0.47; Growth Rate (U2OS; [5]): 0.85; Growth Rate (U2OS; [6]): 0.43; Growth Rate (U2OS; [2]): 0.81
13 | COc1cc(Nc2ncc3c(n2)-c2ccc(Cl)cc2C(c2c(F)cccc2OC)=NC3)ccc1C(=O)O [ALISERTIB] | 0.39 | 0.38 | 0.68 | -0.97 | -0.09 | -0.79 | -0.13 | -0.39 | -0.14 | 0.54 | 0.45 | 0.33 |  | 0.83 | 0.19 | 0.65 | 0.13 | -0.64 | 0.41 |  | Growth Rate (HEK-293T; [4]): -0.03; Growth Rate (HEK-293T; [5]): 0.03; Growth Rate (HEK-293T; [7]): 0; Growth Rate (HEK-293T; [9]): 0.26; Growth Rate (Fibroblast; [7]): -0.17; Growth Rate (Fibroblast; [9]): -0.09; Growth Rate (U2OS; [6]): 0.43; Growth Rate (U2OS; [2]): 0.39
14 | O=c1nc2[nH]c3ccccc3nc-2c(=O)[nH]1 [ALLOXAZINE] | 0.81 | 0.9 | 0.73 | 0.04 |  |  |  |  | 0.16 |  | 0.95 |  | -0.4 |  |  |  | 0.97 |  | -1 |  | Growth Rate (HEK-293T; [3]): 0.68
15 | Cc1[nH]cnc1CN1CCc2c(c3ccccc3n2C)C1=O [ALOSETRON] |  |  |  |  | 0.22 |  | 1 |  |  |  | 0.87 | 0.96 | 0.35 | 0.03 | 0.89 | 0.9 |  |  |  | 0.73 | Growth Rate (HEK-293T; [5]): 0.39
16 | CCCCC[C@H](O)/C=C/[C@H]1[C@H](O)CC(=O)[C@@H]1CCCCCCC(=O)O [ALPROSTADIL] |  |  | 0.17 |  |  |  |  |  | 0.29 | 0.88 | 0.83 | 0.94 | -0.23 | -0.08 | 0.53 | 0.97 |  |  | -1 | -0.15 | Growth Rate (HEK-293T; [3]): -0.14; Growth Rate (HEK-293T; [4]): 0.92; Growth Rate (HEK-293T; [7]): 1; Growth Rate (U2OS; [5]): 0.85; Growth Rate (U2OS; [6]): 0.28; Growth Rate (U2OS; [2]): 0.85
17 | C[C@H]1CN(C[C@H](Cc2ccccc2)C(=O)NCC(=O)O)CC[C@@]1(C)c1cccc(O)c1 [ALVIMOPAN] | 1 | 0.93 | -0.31 |  |  |  |  |  |  | 0.99 | 0.92 | 0.88 | 0.37 | 0.22 | 0.91 | 0.94 | 0.9 |  | 0.76 | 0.62 | Growth Rate (HEK-293T; [3]): 0.08; Growth Rate (HEK-293T; [5]): 0.52; Growth Rate (HEK-293T; [7]): 0.53; Growth Rate (HEK-293T; [9]): 0.85
